Measurements reported in ChEMBL document CHEMBL4196109, “Chemical Strategies for Half-Life Extension of Biopharmaceuticals: Lipidation and Its Alternatives” (ACS Med Chem Lett, 2018).

Columns and labels:
Albumin = Albumin (Homo sapiens, UniProt P02768); assay: Binding affinity to human albumin; assay type: ADME; conditions: isolated protein
Homo sapiens = assay: Half life in sc dosed human; assay type: ADME, organism-based; conditions: in vivo

Albumin, sequence (P02768 whole entry): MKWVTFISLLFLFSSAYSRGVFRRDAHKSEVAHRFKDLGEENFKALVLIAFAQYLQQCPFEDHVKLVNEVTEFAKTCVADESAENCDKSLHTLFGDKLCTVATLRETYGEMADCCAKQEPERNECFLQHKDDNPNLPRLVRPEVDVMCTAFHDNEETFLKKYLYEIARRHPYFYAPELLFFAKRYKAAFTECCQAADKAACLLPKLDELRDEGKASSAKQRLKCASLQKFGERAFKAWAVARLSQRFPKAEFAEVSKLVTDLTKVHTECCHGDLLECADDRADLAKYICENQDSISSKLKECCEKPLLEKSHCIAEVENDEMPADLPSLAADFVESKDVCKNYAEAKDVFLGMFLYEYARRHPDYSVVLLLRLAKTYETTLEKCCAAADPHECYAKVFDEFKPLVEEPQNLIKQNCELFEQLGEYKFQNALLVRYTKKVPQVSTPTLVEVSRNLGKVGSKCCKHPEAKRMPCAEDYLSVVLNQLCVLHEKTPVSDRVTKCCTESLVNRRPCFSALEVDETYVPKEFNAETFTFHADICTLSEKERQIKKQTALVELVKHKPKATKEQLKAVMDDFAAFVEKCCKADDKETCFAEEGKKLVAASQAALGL

| Activity (Albumin) | t1/2 (Homo sapiens) | Compound |
| --- | --- | --- |
| > 99% |  | NC(=O)[C@H](CCCCNC(=O)CSC[C@H](N)C(=O)O)NC(=O)COCCOCCNC(=O)CC[C@H](NC(=O)CC[C@H](NC(=O)COCCOCCNC(=O)CCCS(=O)(=O)NC(=O)CCCCCCCCCCCCCCc1nn[nH]n1)C(=O)O)C(=O)O |
|  | 1 weeks | SEMAGLUTIDE |
